From patent US6132697A, “Radiopharmaceutical compositions capable of localizing at sites of thrombus” (G. D. Searle & Co., priority 1997, dated 2000)

Columns and labels:
[1] = Biodistribution in rat model (radioactivity in organs, excretion); assay type: in vivo, Sprague-Dawley rats
Procedure: This study was designed to evaluate the biodistribution pattern of the compound of Example 2 to determine the clearance profile from blood, route of excretion and in vivo stability of the complex by HPLC analysis of urine samples, in a rat model.
The compound of Example 2 was injected ([…], 1.5-3.5 mCi/mL) into Sprague-Dawley rats. Groups of three animals were sacrificed at the time points indicated below to determine the amount of radioactivity remained in the organs. Results: (to be filled)
The compound of Example 7 was injected ([…], 1.5-3.5 mCi/mL) into Sprague-Dawley rats. Groups of three animals were sacrificed at the time points indicated below to determine the amount of radioactivity (%ID/g) remaining in the organs.
The compound of Example 12 was injected into Sprague-Dawley rats according to the procedure outlined in Example 5. The amount of radioactivity present in the major excretionary organs at different time points (1, 4 and 24 hours) are given below.
The compound of Example 19 was injected into Sprageue-Dawley rats according to the procedure outlined earlier. The amount of radioactivity present in the major excretionary organs at different time points (1, 4 and 24 hours) are given below.
The compound of Example 26 was injected ([…], 1.5-3.5 mCi/mL) into Sprague-Dawley rats. Groups of three animals were sacrificed at the time points indicated below to determine the amount of radioactivity remaining in the organs.

[2] = tested on: pulmonary emboli (PE) and/or deep vein thrombus (DVT); assay: Canine model for pulmonary embolism / deep vein thrombus (embolization coils); assay type: in vivo, dog; conditions: sacrifice at 3 hours
Procedure: These studies are designed to serve as a preliminary screen of various radiolabeled pharmaceuticals for the purpose of imaging pulmonary emboli (PE) and/or deep vein thrombus (DVT).
Procedure: The dog is first anesthetized with an intravenous injection of sodium pentobarbital (30 mg/kg). An IV catheter is placed into the jugular vein and advanced to the pulmonary artery. Visualization of the catheter placement is facilitated using fluoroscopy. Embolization coils of various sizes (3-8 mm) are next released via the catheter using the appropriate guide wire, and localization of the coils is followed by fluoroscopy. After a satisfactory number of coils (3-5) have been placed and visualized, the catheter is removed and the vein ligated. The formation of a deep vein thrombus (DVT) in the saphenous vein is facilitated by the placement of a 16 gauge needle into the vein followed by the passage of a 5 mm embolization coil through the needle directly into the vein.
IV injection (cephalic vein) of the radiolabeled test article occurs approximately 30-45 minutes post placement of the embolization coils. Approximate activity injected is 2.5-3.5mCi. Beginning at 30 minutes post injection and continuing for several hours at 30 minute intervals, the animal is scintigraphed in both the lateral and supine positions.
At the conclusion of the imaging portion of the study (3 hours) the animal is sacrificed, and selected tissues removed for scintillation counting. The coils are located, removed and quantitated for uptake of the radiotracer. From these values is determined the target:non-target ratios and blood clearance of the test article.
The compound of claim 19 was administered to a canine according to the general protocol described in Example 16.

[3] = target: T1, GPIIb/IIIa receptors (Homo sapiens, UniProt P05106+P08514); assay: ADP induced platelet aggregation inhibition assay in platelet rich plasma; assay type: cell-based; conditions: read-out: IC50 (half-maximal inhibition of platelet aggregation)
T1 construct: endogenous in cells; host or cells: platelets in platelet rich plasma from healthy volunteer donors
Procedure: This Example describes Platelet Aggregation Inhibition Assays of the compound of Example 2 to illustrate that the compound binds to GPIIb/IIIa receptors when radiolabelled.
Healthy aspirin free donors were randomly selected from a pool of volunteers. The harvesting of platelet rich plasma and subsequent ADP induced platelet aggregation assays were performed as described in Zucker, M. B. "Platelet Aggregation Measured by the Photometric Method", Methods in Enzymology 169 (1989):117-133. Standard venipuncture techniques using butterfly allowed the withdrawal of 45 mL of whole blood into a 60 mL syringe containing 5 mL 3.8% trisodium citrate. Following thorough mixing in the syringe, the anti-coagulated whole blood was transferred to a 50 mL conical polyethylene tube. The blood was centrifuged at room temperature for 12 minutes at 200xg to sediment non-platelet cells. Platelet poor plasma was obtained from a second centrifugation of the remaining blood at 2000xg for 15 minutes. Platelet counts are typically 300,000 to 500,000 per microliter. […] Aggregation was recorded for 3 minutes in a Payton dual channel aggregometer (Payton Scientific, Buffalo, N.Y.). […] The compounds were tested in duplicate and half-maximal inhibition (IC50) was calculated graphically from the dose response curve. […]

T1 sequence (P08514 32-887 limits assumed): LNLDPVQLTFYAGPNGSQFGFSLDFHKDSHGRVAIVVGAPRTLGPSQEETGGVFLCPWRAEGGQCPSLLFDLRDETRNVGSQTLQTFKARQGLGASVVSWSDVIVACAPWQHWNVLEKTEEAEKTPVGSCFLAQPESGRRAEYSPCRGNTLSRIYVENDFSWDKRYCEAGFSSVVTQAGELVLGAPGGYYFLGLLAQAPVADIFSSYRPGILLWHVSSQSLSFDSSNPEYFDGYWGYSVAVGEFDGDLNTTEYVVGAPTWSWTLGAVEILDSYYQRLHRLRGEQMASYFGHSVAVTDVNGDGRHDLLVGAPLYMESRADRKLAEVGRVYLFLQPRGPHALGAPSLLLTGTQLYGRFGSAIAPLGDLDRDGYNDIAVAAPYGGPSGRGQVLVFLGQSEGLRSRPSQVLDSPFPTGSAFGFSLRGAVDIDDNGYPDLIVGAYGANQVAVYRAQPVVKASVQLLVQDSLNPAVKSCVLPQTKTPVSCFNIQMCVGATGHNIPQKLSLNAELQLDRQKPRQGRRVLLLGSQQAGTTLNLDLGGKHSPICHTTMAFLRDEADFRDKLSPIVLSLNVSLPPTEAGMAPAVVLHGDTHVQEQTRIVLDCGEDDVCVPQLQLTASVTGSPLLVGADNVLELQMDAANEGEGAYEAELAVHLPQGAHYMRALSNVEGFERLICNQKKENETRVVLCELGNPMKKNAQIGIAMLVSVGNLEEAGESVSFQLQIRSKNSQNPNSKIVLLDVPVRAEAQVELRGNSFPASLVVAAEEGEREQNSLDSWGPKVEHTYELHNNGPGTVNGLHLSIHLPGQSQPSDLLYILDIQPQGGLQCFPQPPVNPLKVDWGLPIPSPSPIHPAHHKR
T1 sequence (P08514 891-1039 partner limits assumed): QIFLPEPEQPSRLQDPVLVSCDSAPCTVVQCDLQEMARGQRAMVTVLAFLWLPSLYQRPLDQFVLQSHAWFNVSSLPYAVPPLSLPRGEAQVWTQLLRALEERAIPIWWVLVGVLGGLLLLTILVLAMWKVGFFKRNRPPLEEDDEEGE
T1 sequence (P05106 27-788): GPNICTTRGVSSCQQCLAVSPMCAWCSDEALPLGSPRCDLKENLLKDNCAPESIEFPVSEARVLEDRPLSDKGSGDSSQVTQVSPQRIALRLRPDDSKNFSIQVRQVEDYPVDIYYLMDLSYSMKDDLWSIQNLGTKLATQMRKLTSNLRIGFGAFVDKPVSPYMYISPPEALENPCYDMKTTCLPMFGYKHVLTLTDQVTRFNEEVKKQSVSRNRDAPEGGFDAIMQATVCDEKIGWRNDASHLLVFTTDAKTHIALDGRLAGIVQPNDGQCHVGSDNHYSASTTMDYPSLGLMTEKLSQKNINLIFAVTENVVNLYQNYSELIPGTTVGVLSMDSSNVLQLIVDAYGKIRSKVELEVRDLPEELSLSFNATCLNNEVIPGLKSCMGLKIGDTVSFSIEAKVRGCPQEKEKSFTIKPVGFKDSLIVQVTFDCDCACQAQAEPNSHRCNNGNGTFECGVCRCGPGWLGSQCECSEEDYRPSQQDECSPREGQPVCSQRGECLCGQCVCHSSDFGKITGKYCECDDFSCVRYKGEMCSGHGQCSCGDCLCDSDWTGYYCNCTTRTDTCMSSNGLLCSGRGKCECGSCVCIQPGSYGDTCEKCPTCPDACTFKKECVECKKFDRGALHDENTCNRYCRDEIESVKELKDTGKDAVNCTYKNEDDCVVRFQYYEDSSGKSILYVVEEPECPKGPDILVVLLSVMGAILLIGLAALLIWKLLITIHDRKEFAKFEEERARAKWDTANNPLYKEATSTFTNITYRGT

radioactivity in organ: Blood ([1]; 1 hour) [% ID/g]	radioactivity in organ: Kidney ([1]; 1 hour) [% ID/g]	radioactivity in organ: Liver ([1]; 1 hour) [% ID/g]	radioactivity in organ: Sml. Int & Contents ([1]; 1 hour) [% ID/g]	radioactivity in organ: Blood ([1]; 4 hours) [% ID/g]	radioactivity in organ: Kidney ([1]; 4 hours) [% ID/g]	radioactivity in organ: Liver ([1]; 4 hours) [% ID/g]	radioactivity in organ: Sml. Int & Contents ([1]; 4 hours) [% ID/g]	radioactivity in organ: Blood ([1]; 24 hours) [% ID/g]	radioactivity in organ: Kidney ([1]; 24 hours) [% ID/g]	radioactivity in organ: Liver ([1]; 24 hours) [% ID/g]	radioactivity in organ: Sml. Int & Contents ([1]; 24 hours) [% ID/g]	% ID excreted in the feces at 24 hr. [1] [% ID]	% ID excreted in the urine at 24 hr. [1] [% ID]	IC50 [3] [µM]	SMILES	also measured
0.067	0.864	0.158	0.645	0.011	0.520	0.024	0.015	0.004	0.241	0.009	0.002	32.758	41.217	–	CN(C)CC[N]1C(=O)C(CCC(=O)O)[N]2C(=O)C(CCCCNC(=O)CCNC(=O)C(CC(=O)O)NC(=O)CCC(=O)Nc3ccc(C(=N)N)cc3)[N]3C(=O)C[S][99Tc-]132=[O] (centres unmarked) [Example 19]	% ID/g ([2]; Blood): 0.0018 % ID/g; % ID/g ([2]; Clot 1 (DVT)): 0.0828 % ID/g; Clot/blood ([2]; Clot 1 (DVT)): 43; % ID/g ([2]; Clot 2 (PE)): 0.0114 % ID/g; Clot/blood ([2]; Clot 2 (PE)): 6; % ID/g ([2]; Clot 3 (PE)): 0.125 % ID/g; Clot/blood ([2]; Clot 3 (PE)): 65; % ID/g ([2]; Clot 4 (PE)): 0.142 % ID/g; Clot/blood ([2]; Clot 4 (PE)): 74; % ID/g ([2]; Clot 5 (PE)): 0.1232 % ID/g; Clot/blood ([2]; Clot 5 (PE)): 64
0.067	0.628	0.043	0.206	0.011	0.536	0.015	0.031	0.007	0.227	0.014	0.009	16.277	54.708	–	CN(C)CC[N]1C(=O)C(CCC(=O)O)[N]2C(=O)C(CCCC(=O)NCCCCC(NC(=O)C(CC(=O)O)NC(=O)CCC(=O)Nc3ccc(C(=N)N)cc3)C(=O)O)[N]3C(=O)C[S][99Tc-]132=[O] (centres unmarked) [Example 26]	–
–	–	–	–	–	–	–	–	–	–	–	–	–	–	0.49	CN(C)CCNC(=O)C(CCC(=O)O)NC(=O)C(CCCCNC(=O)CCNC(=O)C(CC(=O)O)NC(=O)CCC(=O)Nc1ccc(C(=N)N)cc1)NC(=O)CSC1CCCCO1 [Example 18, ABAS-L-Asp-β-Ala-ε-L-Lys(α-S-THP-mercaptoacetyl)-Glu-dme]	–
–	–	–	–	–	–	–	–	–	–	–	–	–	–	0.29	CN(C)CC[N]1C(=O)C(CCC(=O)O)[N]2C(=O)C(CCCC(=O)NCCCCC(NC(=O)C(CC(=O)O)NC(=O)CCC(=O)Nc3ccc(C(=N)N)cc3)C(=O)O)[N]3C(=O)C[S][TcH]132=[O] (centres unmarked) [Example 26]	–
